Structures can show the parent of a compound that is named as a salt.

In general, IC50 refers to the concentration at which inhibition is half-maximal.

The test system of one assay is Normal Rat. Put plainly: Test of Lipid Reduction in Normal Rat. The format is in vivo, rat (male Wister). To be noted: compared with the control, oral 100 mg/kg for 3 days. The protocol:
Test of Lipid Reduction in Normal Rat
Five 5-week-old male Wister rats per group were used as test animals. Each test drug was orally administered to the rat at a dose of 100 mg/kg for 3 days. A blood sample was taken from the rat having been deprive of food for 18 hours from the final administration, and the serum was separated. A total cholesterol value and a total triglyceride value were measured with an autoanalyzer (Hitachi 7150) in accordance with an enzyme method (Autosera, manufactured by Daiichi Kagaku K.K.). Lipoprotein was separated by a precipitation method (HDL-C.2, manufactured by Daiichi Kagaku K.K.), and the cholesterol in the lipoprotein was determined by an enzyme method. Five ml/kg of each test drug suspended in a 0.2% aqueous solution of sodium carboxymethyl cellulose was administered. For control, the same sodium carboxymethyl cellulose solution containing no test drug was administered.
Note: "Percent change" in Tables 2 and 3 is a rate of change in the respective cholesterol value compared with the control.
In the case of `CC(C)c1cccc(C(C)C)c1NC(=O)CSCCCCCCN1CCN(c2ccccc2)CC1` [Compound 1, N-(2,6-Diisopropylphenyl)-2-[6-(4-phenylpiperazinyl)hexylthio]acetamide], the “Cholesterol in High Density Lipoprotein, Percent Change” value is recorded as 3.4%; the “Cholesterol in Low Density Lipoprotein, Percent Change” value was -50.8%; the “Total Cholesterol in Serum, Percent Change” value was -12.2%; the “Total Triglyceride in Serum, Percent Change” value is given as -41.6%.

For the molecule `CCCCCCCCCCC(C)(C)C(=O)Nc1c(OC)cc(OC)cc1OC` [Compound B, N-(2,4,6-Trimethoxyphenyl)-2,2-dimethyldodecylamide, reference compound], the “Cholesterol in High Density Lipoprotein, Percent Change” value is 15.5%; the “Cholesterol in Low Density Lipoprotein, Percent Change” value worked out at 0.0%; the “Total Cholesterol in Serum, Percent Change” value worked out at 7.1%; the “Total Triglyceride in Serum, Percent Change” value worked out at 18.8%.

Still in this assay, the particulars now being: oral 100 mg/kg for 3 days, fasted 18 hours.
In the case of `CC(C)c1cccc(C(C)C)c1NC(=O)CSCCCCCCN1CCN(c2ccccc2)CC1` [Compound 1, N-(2,6-Diisopropylphenyl)-2-[6-(4-phenylpiperazinyl)hexylthio]acetamide], the “Cholesterol in High Density Lipoprotein, Measured Value” worked out at 46.0 ± 1.7 mg/dL; the “Cholesterol in Low Density Lipoprotein, Measured Value” worked out at 5.8 ± 2.0 mg/dL; the “Total Cholesterol in Serum, Measured Value” was found to be 51.8 ± 3.2 mg/dL; the “Total Triglyceride in Serum, Measured Value” came out at 51.6 ± 2.7 mg/dL.

Regarding `CCCCCCCCCCC(C)(C)C(=O)Nc1c(OC)cc(OC)cc1OC` [Compound B, N-(2,4,6-Trimethoxyphenyl)-2,2-dimethyldodecylamide, reference compound], the “Cholesterol in High Density Lipoprotein, Measured Value” worked out at 51.4 ± 2.2 mg/dL; the “Cholesterol in Low Density Lipoprotein, Measured Value” was determined as 11.8 ± 5.1 mg/dL; the “Total Cholesterol in Serum, Measured Value” came to 63.2 ± 3.1 mg/dL; the “Total Triglyceride in Serum, Measured Value” turned out to be 108.0 ± 5.1 mg/dL.

In the next assay the target is T1, ACAT (Oryctolagus cuniculus, UniProt G1SFD9).
T1 construct: A microsome fraction of a rabbit small intestine prepared in a usual manner; from tissue; host or cells: rabbit small intestine, microsome fraction
T1 sequence (G1SFD9 1-524): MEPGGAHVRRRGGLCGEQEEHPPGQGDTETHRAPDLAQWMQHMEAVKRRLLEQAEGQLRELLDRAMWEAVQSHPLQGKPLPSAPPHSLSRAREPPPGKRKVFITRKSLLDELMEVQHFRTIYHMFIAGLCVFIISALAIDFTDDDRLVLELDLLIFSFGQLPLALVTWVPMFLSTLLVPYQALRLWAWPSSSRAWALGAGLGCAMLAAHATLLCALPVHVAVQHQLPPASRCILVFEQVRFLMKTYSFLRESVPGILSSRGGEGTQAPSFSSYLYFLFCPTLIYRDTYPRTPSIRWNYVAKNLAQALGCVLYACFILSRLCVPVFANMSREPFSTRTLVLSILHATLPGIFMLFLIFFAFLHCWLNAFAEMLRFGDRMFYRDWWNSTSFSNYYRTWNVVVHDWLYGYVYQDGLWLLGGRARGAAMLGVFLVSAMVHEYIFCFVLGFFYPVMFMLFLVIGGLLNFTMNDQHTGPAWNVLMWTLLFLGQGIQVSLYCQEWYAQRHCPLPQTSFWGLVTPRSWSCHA
Nature of the assay: Test of ACAT Inhibitory Activity (rabbit small intestinal microsome fraction). Format: biochemical. To be noted: rabbit small intestinal microsomes, [1-14C]oleyl coenzyme, pH 7.4, 37° C., 6 minutes. The protocol: Test of ACAT Inhibitory Activity
The test was carried out in accordance with the method described in J. Lipid Res., Vol. 22, p.
A microsome fraction of a rabbit small intestine prepared in a usual manner was suspended in a 0.04N potassium phosphate buffer solution (pH 7.4) containing 0.1N sucrose, 0.03N ethylenediaminetetraacetic acid (EDTA), and 0.05N potassium chloride. Each drug to be tested was dissolved in dimethyl sulfoxide.
The rabbit small intestinal microsome fraction suspension prepared above (250 μg as protein) and [1-^14 C]oleyl coenzyme were added to a 0.05N phosphate buffer solution (pH 7.4) containing 1% bovine serum albumin, followed by addition of a drug to be tested in a varied concentration. The total volume of the mixture was adjusted to 500 μl to prepare a sample. For control, a sample was prepared in the same manner, except for adding no test drug. The sample was incubated at 37° C. for 6 minutes, and the reaction was terminated by addition of a mixture of chloroform and methanol (mixing ratio=2:1). After stirring, the chloroform layer was collected and concentrated to dryness. […] A gel portion corresponding to cholesterol oleate was scraped, and its radioactivity was measured with a liquid scintillation counter (LSC-3000, manufactured by Aloka Co., Ltd.). Percent inhibition on ACAT activity was calculated using the following equation to obtain an IC50 value. [formula]
The molecule `CC(C)c1cccc(C(C)C)c1NC(=O)CSCCCCCCCN1CCN(c2ccccc2)CC1` [Compound 25, N-(2,6-Diisopropylphenyl)-2-[7-(4-phenylpiperazinyl)heptylthio]acetamide] gave an IC50 of 10 to 100 nM.

`Cc1ccccc1N1CCN(CCCCCCSCC(=O)Nc2c(C(C)C)cccc2C(C)C)CC1` [Compound 9, N-(2,6-Diisopropylphenyl)-2-{6-[4-(2-methylphenyl)piperazinyl]hexylthio}acetamide fumarate] displayed an IC50 of 10 to 100 nM.

The molecule `COc1ccc(N2CCN(CCCCCCSCC(=O)Nc3c(C(C)C)cccc3C(C)C)CC2)cc1` [Compound 3, N-(2,6-Diisopropylphenyl)-2-{6-[4-(4methoxyphenyl)piperazinyl]hexylthio}acetamide] had an IC50 of 10 to 100 nM.

`CC(C)c1cccc(C(C)C)c1NC(=O)CSCCCCCCN1CCN(c2ccc(Cl)cc2)CC1` [Compound 16, N-(2,6-Diisopropylphenyl)-2-{6-[4-(4-chlorophenyl)piperazinyl]hexylthio}acetamide] yielded an IC50 of 10 to 100 nM.

As to `COc1ccccc1N1CCN(CCCCCCSCC(=O)Nc2c(C(C)C)cccc2C(C)C)CC1` [Compound 2, N-(2,6-Diisopropylphenyl)-2-{6-[4-(2-methoxyphenyl)piperazinyl]hexylthio}acetamide dihydrochloride], the IC50 lay within 10 to 100 nM.

As to `CC(C)c1cccc(C(C)C)c1NC(=O)CSCCCCCCN1CCN(c2ncccn2)CC1` [Compound 6, N-(2,6-Diisopropylphenyl)-2-{6-[4-(2-pyrimidyl)piperazinyl]hexylthio}acetamide], the IC50 is 10 to 100 nM.

The molecule `CC(C)c1cccc(C(C)C)c1NC(=O)CSCCCCCCN1CCN(c2ccccc2)CC1` [Compound 1, N-(2,6-Diisopropylphenyl)-2-[6-(4-phenylpiperazinyl)hexylthio]acetamide] came in with an IC50 of 10 to 100 nM.

The molecule `CC(C)c1cccc(C(C)C)c1NC(=O)CSCCCCN1CCN(c2ccccc2)CC1` [Compound 19, N-(2,6-Diisopropylphenyl)-2-[4-(4-phenylpiperazinyl)butylthio]acetamide dihydrochloride] came in with an IC50 of 10 to 100 nM.

`CC(C)c1cccc(C(C)C)c1NC(=O)CSCCCCCCN1CCN(c2cccc(C(F)(F)F)c2)CC1` [Compound 10, N-(2,6-Diisopropylphenyl)-2-{6-[4-(3-trifluoromethylphenyl)piperazinyl]hexylthio}acetamide]: the IC50 was in the range of 10 to 100 nM.

`CC(C)c1cccc(C(C)C)c1NC(=O)CSCCCCCCN1CCN(c2ccc(F)cc2)CC1` [Compound 11, N-(2,6-Diisopropylphenyl)-2-{6-[4-(4-fluorophenyl)piperazinyl]hexylthio}acetamide] gave an IC50 of 10 to 100 nM.

In turn, `CC(C)c1cccc(C(C)C)c1NC(=O)CSCCCN1CCN(c2ccccc2)CC1` [Compound 18, N-(2,6-Diisopropylphenyl)-2-[3-(4-phenylpiperazinyl)propylthio]acetamide dihydrochloride] displayed an IC50 of 10 to 100 nM.

For the molecule `CC(C)c1cccc(C(C)C)c1NC(=O)CSCCCCCCCCN1CCN(c2ccccc2)CC1` [Compound 21, N-(2,6-Diisopropylphenyl)-2-[8-(4-phenylpiperazinyl)octylthio]acetamide], the IC50 lay within 1 to 10 nM.

On to `CC(C)c1cccc(C(C)C)c1NC(=O)CSCCCCCCN1CCN(c2cccc(C(F)(F)F)n2)CC1` [Compound 14, N-(2,6-Diisopropylphenyl)-2-{6-[4-(6-trifluoromethyl-2-pyridyl)piperazinyl]hexylthio}acetamide], for which the IC50 is 10 to 100 nM.

With `CC(C)c1cccc(C(C)C)c1NC(=O)CSCCCCCCN1CCN(c2cc(Cl)ccn2)CC1` [Compound 15, N-(2,6-Diisopropylphenyl)-2-{6-[4-(4-chloro-2-pyridyl)piperazinyl]hexylthio}acetamide], the IC50 was in the range of 10 to 100 nM.

`CC(C)c1cccc(C(C)C)c1NC(=O)CSCCCCCCCCCCCCN1CCN(c2ccccc2)CC1` [Compound 24, N-(2,6-Diisopropylphenyl)-2-[12-(4-phenylpiperazinyl)dodecylthio]acetamide]: the IC50 is 10 to 100 nM.

Molecule `CC(C)c1cccc(C(C)C)c1NC(=O)CSCCCCCCN1CCN(c2ccccn2)CC1` [Compound 5, N-(2,6-Diisopropylphenyl)-2-{6-[4-(2pyridyl)piperazinyl]hexylthio}acetamide] displayed an IC50 of 10 to 100 nM.

`CC(C)c1cccc(C(C)C)c1NC(=O)CSCCN1CCN(c2ccccc2)CC1` [Compound 17, N-(2,6-Diisopropylphenyl)-2-[2-(4-phenylpiperazinyl)ethylthio]acetamide dihydrochloride] had an IC50 of 10 to 100 nM.

The molecule `CC(C)c1cccc(C(C)C)c1NC(=O)CSCCCCCCN1CCN(c2cccc(Cl)c2)CC1` [Compound 7, N-(2,6-Diisopropylphenyl)-2-{6-[4-(3-chlorophenyl)piperazinyl]hexylthio}acetamide] showed an IC50 of 10 to 100 nM.

In the case of `CC(C)c1cccc(C(C)C)c1NC(=O)CSCCCCCCCCCN1CCN(c2ccccc2)CC1` [Compound 22, N-(2,6-Diisopropylphenyl)-2-[9-(4-phenylpiperazinyl)nonylthio]acetamide], the IC50 lay in the range of 10 to 100 nM.

`CC(C)c1cccc(C(C)C)c1NC(=O)CSCCCCCCCCCCN1CCN(c2ccccc2)CC1` [Compound 23, N-(2,6-Diisopropylphenyl)-2-[10-(4-phenylpiperazinyl)decylthio]acetamide] showed an IC50 of 10 to 100 nM.

As to `Cc1cccc(N2CCN(CCCCCCSCC(=O)Nc3c(C(C)C)cccc3C(C)C)CC2)c1` [Compound 8, N-(2,6-Diisopropylphenyl)-2-{6-[4-(3-methylphenyl)piperazinyl]hexylthio}acetamide], the IC50 lay within 10 to 100 nM.

`CC(C)c1cccc(C(C)C)c1NC(=O)CSCCCCCCN1CCN(c2ccccc2Cl)CC1` [Compound 4, N-(2,6-Diisopropylphenyl)-2-{6-[4-(2-chlorophenyl)piperazinyl]hexylthio}acetamide] showed an IC50 of 10 to 100 nM.

As to `CC(C)c1cccc(C(C)C)c1NC(=O)CSCCCCCCN1CCN(c2ccccc2[N+](=O)[O-])CC1` [Compound 12, N-(2,6-Diisopropylphenyl)-2-{6-[4-(2-nitrophenyl)piperazinyl]hexylthio}acetamide], the IC50 is 10 to 100 nM.

These data come from patent publication US5416212A, “Anilide derivatives” (Taisho Pharmaceutical Co., Ltd., priority 1991, dated 1995).
